US8466113B2, “4-isopropylphenyl glucitol compounds as SGLT1 inhibitors” (Taisho Pharmaceutical Co., Ltd., priority 2009, dated 2013)

Legend:
[1] = biological target: T1, human SGLT2 (Homo sapiens, UniProt P31639); assay: Inhibition test for sodium-dependent sugar uptake in CHO-K1 cells stably expressing human SGLT2, Method B; format: cell-based; details: uptake 37° C., 60 minutes, read-out: IC50 for hSGLT2 Method B
T1 construct: expressed in transfected cells; host or cells: CHO-K1
T1 sequence (P31639 1-672): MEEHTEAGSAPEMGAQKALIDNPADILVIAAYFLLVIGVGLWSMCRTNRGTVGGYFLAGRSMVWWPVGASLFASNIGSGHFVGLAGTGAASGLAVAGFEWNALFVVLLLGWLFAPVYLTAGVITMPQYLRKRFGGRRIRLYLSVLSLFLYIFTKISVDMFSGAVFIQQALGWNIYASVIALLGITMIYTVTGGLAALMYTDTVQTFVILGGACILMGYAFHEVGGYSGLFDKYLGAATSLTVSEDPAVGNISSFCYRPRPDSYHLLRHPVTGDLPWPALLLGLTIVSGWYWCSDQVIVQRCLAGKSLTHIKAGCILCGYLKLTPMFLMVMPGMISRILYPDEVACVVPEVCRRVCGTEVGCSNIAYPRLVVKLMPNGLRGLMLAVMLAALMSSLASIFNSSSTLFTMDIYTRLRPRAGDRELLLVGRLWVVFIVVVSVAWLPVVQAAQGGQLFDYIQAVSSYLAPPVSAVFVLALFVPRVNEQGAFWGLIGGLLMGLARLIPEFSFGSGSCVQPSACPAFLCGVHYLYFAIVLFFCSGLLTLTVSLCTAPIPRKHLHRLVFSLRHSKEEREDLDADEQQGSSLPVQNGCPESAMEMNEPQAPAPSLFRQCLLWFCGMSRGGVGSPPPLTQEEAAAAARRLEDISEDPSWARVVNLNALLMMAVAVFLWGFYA
Procedure: (2) Creation of CHO-K1 Cells Stably Expressing Human SGLT2
Method B: A plasmid vector expressing human SGLT2 protein was transfected into CHO-K1 cells using lipofectamine LTX (Invitrogen). The cells were cultured in the presence of 1000 μg/mL geneticin to select resistant strains, followed by screening in the system shown below using sugar uptake capacity as an indicator to obtain SGLT2-expressing cells.
(3) Inhibition Test for Sodium-Dependent Sugar Uptake in Stably Expressing Cells
The stably expressing cells prepared above were used in the following test.
Pretreatment buffer (140 mM choline chloride, 2 mM KCl, 1 mM CaCl2, 1 mM MgCl2, 10 mM HEPES/5 mM Tris, pH 7.4) was added in a volume of 200 μL to the cells stably expressing SGLT1 or 2 mL for Method A and 200 μL for Method B to the cells stably expressing SGLT2, followed by incubation for 20 minutes. The pretreatment buffer was removed and replaced by uptake buffer containing a test compound (1 mM methyl α-D-glucopyranoside (containing [^14C]methyl α-D-glucopyranoside), 140 mM NaCl, 2 mM KCl, 1 mM CaCl2, 1 mM MgCl2, 10 mM HEPES/5 mM Tris, pH 7.4) in a volume of 75 μL for SGLT1 and SGLT2 in Method B or 200 μL for SGLT2 in Method A. Uptake reaction was performed at 37° C. for 30 minutes (SGLT1) or 60 minutes (SGLT2). After the reaction, the cells were washed twice with washing buffer (10 mM methyl α-D-glucopyranoside, 140 mM choline chloride, 2 mM KCl, 1 mM CaCl2, 1 mM MgCl2, 10 mM HEPES/5 mM Tris, pH 7.4) in a volume of 200 μL for SGLT1 and SGLT2 in Method B or 2 mL for SGLT2 in Method A, and then dissolved in a 0.25 M NaOH solution (75 μL for SGLT1 and SGLT2 in Method B or 400 μL for SGLT2 in Method A). A liquid scintillator (Perkin Elmer) was added and mixed well with each sample, followed by measurement of radioactivity using a β-ray analyzer. For the control group, uptake buffer containing no test compound was prepared. Moreover, another uptake buffer containing choline chloride instead of NaCl was also prepared for basal uptake.
For determination of IC50 values, test compounds prepared at 6 appropriate concentrations were used and their concentrations required for 50% inhibition of the amount of sugar uptake (IC50 values) were calculated relative to the amount of sugar uptake in the control group (100%).

[2] = system: streptozotocin (STZ)-induced diabetic rats; assay: Oral glucose tolerance test (OGTT) in streptozotocin-induced diabetic model rats; format: in vivo, rat; details: oral 1 mg/kg, glucose 2 g/kg, versus vehicle control
Procedure: (1) Preparation of Diabetic Model Rats
SD/IGS rats at 7 weeks of age (male, Charles River Laboratories Japan Inc.) were fasted for about 16 hours and then injected with 50 mg/kg streptozotocin (STZ) via the tail vein under ether anesthesia to prepare diabetic model rats. Similarly, another group of SD/IGS rats at 7 weeks of age was injected with 1.25 mmol/L citric acid in physiological saline (1 mL/kg) via the tail vein under ether anesthesia to prepare normal control rats. At one week after injection of STZ or 1.25 mmol/L citric acid in physiological saline, the rats were provided for an oral glucose tolerance test.
(2) Oral Glucose Tolerance Test (OGTT)
After the diabetic model rats were fasted for about 16 hours, drug groups were each orally administered with a drug (1 mg/kg) dissolved in a 0.5% aqueous carboxymethylcellulose sodium (CMC) solution, while the control group was orally administered with a 0.5% aqueous CMC solution alone. The drugs used were compounds 10, 11 and 33 disclosed in WO07/136116, as well as compounds 1-2, 5-2, 6-2, 13-2 and 15-2 according to the present invention. Immediately after drug administration, a glucose solution (2 g/kg) was orally administered and blood was collected at 6 points in total: before drug administration (0 hour) and 0.25, 0.5, 1, 1.5 and 2 hours after oral administration.
Blood was collected from the tail vein of each rat without anesthesia using a heparin-coated blood collection tube, and centrifuged to separate plasma. Plasma glucose concentrations were quantified by measurement with a Glucose CII-Test Wako (Wako Pure Chemical Industries, Ltd., Japan). To determine the intensity of hypoglycemic effect, the blood glucose level before drug administration was subtracted from each blood glucose level measured until one hour after oral administration in each drug group, and the resulting values were analyzed by the trapezoidal method to calculate an increment in the area under the curve for glucose (ΔAUC), which was expressed as a decrease relative to ΔAUC of the control group.

Row | SMILES | IC50 [1] | STZ rats OGTT % inhibition ΔAUC0-1 h (mg/dl) @1 mg/kg/po [2]
1 | Cc1cc(/C=C/C(C)(C)C(=O)NC(C)(C)C(=O)NCCN(C)C)ccc1Cc1cc([C@@H]2O[C@H](CO)[C@@H](O)[C@H](O)[C@H]2O)c(O)cc1C(C)C [Example 1-2] | 74 nM | 74%
2 | Cc1cc(/C=C/C(C)(C)C(=O)NC(C)(C)C(=O)N2CCC(N(C)C)CC2)ccc1Cc1cc([C@@H]2O[C@H](CO)[C@@H](O)[C@H](O)[C@H]2O)c(O)cc1C(C)C [Example 5-2] | 30 nM | 66%

Now from value to compound, other results behind:

Row | IC50 [1] | SMILES | STZ rats OGTT % inhibition ΔAUC0-1 h (mg/dl) @1 mg/kg/po [2]
3 | 64 nM | Cc1cc(/C=C/C(C)(C)C(=O)NC(C)(C)C(=O)NCC(C)(C)N)ccc1Cc1cc([C@@H]2O[C@H](CO)[C@@H](O)[C@H](O)[C@H]2O)c(O)cc1C(C)C [Example 6-2] | 64%
4 | 322 nM | COc1cc(C(C)C)c(Cc2ccc(/C=C/C(C)(C)C(=O)NC(C)(C)C(=O)NCC(C)(C)N)cc2C)cc1[C@@H]1O[C@H](CO)[C@@H](O)[C@H](O)[C@H]1O [Example 13-2] | 54%
5 | 20 nM | COc1cc(C(C)C)c(Cc2ccc(/C=C/C(C)(C)C(=O)NC(C)(C)C(=O)NCCN(C)C)cc2)cc1[C@@H]1O[C@H](CO)[C@@H](O)[C@H](O)[C@H]1O [Example 15-2] | 62%
